Columns and labels:
[1] = system: AGSST (creeping bentgrass); assay: Pre-emergence herbicidal activity, cool season; assay type: in vivo, Agrostis stolonifera; details: GR80 = lowest tested rate (300, 100, 30, 10 g/ha) with 80% or greater inhibition; approx. 14 days after treating; 18/13° C.
How it was run: (§1)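 Seeds sown in sterilised fertilised topsoil received surface-applied compound in 50:50 acetone/water, typically at 300, 100, 30 and 10 g/ha, then greenhouse-grown at 30/21° C (warm-season species) or 18/13° C (cool-season species). Percent inhibition versus untreated plants was scored at about 14 days, giving GR80; an asterisk marks activity short of 80% at the top rate.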

[2] = system: SASKR (russian thistle); assay: Pre-emergence herbicidal activity, cool season; assay type: in vivo, Salsola kali; details: lowest tested rate with 80% or greater inhibition; rates 300, 100, 30, 10 g/ha; about 14 days
How it was run: as §1

[3] = system: LOLMG (annual ryegrass); assay: Pre-emergence herbicidal activity, cool season; assay type: in vivo, Lolium multiflorum; details: GR80 = lowest tested rate (300, 100, 30, 10 g/ha) with 80% or greater inhibition; approx. 14 days after treating; 18/13° C.
How it was run: as §1

[4] = system: SETFA (giant foxtail); assay: Pre-emergence herbicidal activity, warm season; assay type: in vivo, Setaria faberi; details: GR80 = lowest tested rate (300, 100, 30, 10 g/ha) with 80% or greater inhibition; approx. 14 days after treating; 30/21° C.
How it was run: as §1

[5] = system: SORHA (johnsongrass (seedling)); assay: Pre-emergence herbicidal activity, warm season; assay type: in vivo, Sorghum halepense; details: GR80 = lowest tested rate (300, 100, 30, 10 g/ha) with 80% or greater inhibition; approx. 14 days after treating; 30/21° C.
How it was run: as §1

[6] = system: SETVI (green foxtail); assay: Pre-emergence herbicidal activity, cool season; assay type: in vivo, Setaria viridis; details: GR80 = lowest tested rate (300, 100, 30, 10 g/ha) with 80% or greater inhibition; approx. 14 days after treating; 18/13° C.
How it was run: as §1

[7] = system: BRAPP (broadleaf signalgrass); assay: Pre-emergence herbicidal activity, warm season; assay type: in vivo, Brachiaria platyphylla; details: GR80 = lowest tested rate (300, 100, 30, 10 g/ha) with 80% or greater inhibition; approx. 14 days after treating; 30/21° C.
How it was run: as §1

[8] = system: SINAR (wild mustard); assay: Pre-emergence herbicidal activity, cool season; assay type: in vivo, Sinapis arvensis; details: lowest tested rate with 80% or greater inhibition; rates 300, 100, 30, 10 g/ha; about 14 days
How it was run: as §1

[9] = system: LAMPU (purple deadnettle); assay: Pre-emergence herbicidal activity, cool season; assay type: in vivo, Lamium purpureum; details: lowest tested rate with 80% or greater inhibition; rates 300, 100, 30, 10 g/ha; about 14 days
How it was run: as §1

[10] = system: ALOMY (blackgrass); assay: Pre-emergence herbicidal activity, cool season; assay type: in vivo, Alopecurus myosuroides; details: GR80 = lowest tested rate (300, 100, 30, 10 g/ha) with 80% or greater inhibition; approx. 14 days after treating; 18/13° C.
How it was run: (§2)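 Seeds were sown in sterilized, fertilized topsoil, covered, and the soil surface was sprayed with compound in 50:50 acetone/water at 300, 100, 30 and 10 g/ha. Pots were held at 30/21 °C day/night (PANMI, DIGSA) or 18/13 °C (ALOMY, POLCO). GR80 came from percent inhibition versus untreated plants at about 14 days.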

[11] = system: POLCO (wild buckwheat); assay: Pre-emergence herbicidal activity, cool season; assay type: in vivo, Polygonum convolvulus; details: lowest tested rate with 80% or greater inhibition; rates 300, 100, 30, 10 g/ha; about 14 days
How it was run: as §2

[12] = system: SOLNI (black nightshade); assay: Pre-emergence herbicidal activity, warm season; assay type: in vivo, Solanum nigrum; details: GR80 = lowest tested rate (300, 100, 30, 10 g/ha) with 80% or greater inhibition; approx. 14 days after treating; 30/21° C.
How it was run: as §1

[13] = system: PANMI (wild proso millet); assay: Pre-emergence herbicidal activity, warm season; assay type: in vivo, Panicum miliaceum; details: GR80 = lowest tested rate (300, 100, 30, 10 g/ha) with 80% or greater inhibition; approx. 14 days after treating; 30/21° C.
How it was run: as §2

[14] = system: PANDI (fall panicum); assay: Pre-emergence herbicidal activity, warm season; assay type: in vivo, Panicum dichotomiflorum; details: GR80 = lowest tested rate (300, 100, 30, 10 g/ha) with 80% or greater inhibition; approx. 14 days after treating; 30/21° C.
How it was run: as §1

[15] = system: STEME (common chickweed); assay: Pre-emergence herbicidal activity, cool season; assay type: in vivo, Stellaria media; details: lowest tested rate with 80% or greater inhibition; rates 300, 100, 30, 10 g/ha; about 14 days
How it was run: as §1

[16] = system: VERPE (creeping speedwell); assay: Pre-emergence herbicidal activity, cool season; assay type: in vivo, Veronica persicaria; details: lowest tested rate with 80% or greater inhibition; rates 300, 100, 30, 10 g/ha; about 14 days
How it was run: as §1

[17] = system: POROL (common purslane); assay: Pre-emergence herbicidal activity, warm season; assay type: in vivo, Portulaca oleracea; details: GR80 = lowest tested rate (300, 100, 30, 10 g/ha) with 80% or greater inhibition; approx. 14 days after treating; 30/21° C.
How it was run: as §1

[18] = system: GALAP (catchweed bedstraw); assay: Pre-emergence herbicidal activity, cool season; assay type: in vivo, Galium aparine; details: lowest tested rate with 80% or greater inhibition; rates 300, 100, 30, 10 g/ha; about 14 days
How it was run: as §1

[19] = system: ECHCG (barnyardgrass); assay: Pre-emergence herbicidal activity, warm season; assay type: in vivo, Echinochloa crus-galli; details: GR80 = lowest tested rate (300, 100, 30, 10 g/ha) with 80% or greater inhibition; approx. 14 days after treating; 30/21° C.
How it was run: as §1

[20] = system: CHEAL (common lambsquarters); assay: Pre-emergence herbicidal activity, warm season; assay type: in vivo, Chenopodium album; details: GR80 = lowest tested rate (300, 100, 30, 10 g/ha) with 80% or greater inhibition; approx. 14 days after treating; 30/21° C.
How it was run: as §1

[21] = system: CONAR (field bindweed); assay: Pre-emergence herbicidal activity, warm season; assay type: in vivo, Convolvulus arvensis; details: GR80 = lowest tested rate (300, 100, 30, 10 g/ha) with 80% or greater inhibition; approx. 14 days after treating; 30/21° C.
Experimental: (§3) Tables 5 to 8 summarize results of tests conducted as described below to determine the pre-emergence herbicidal activity, in the form of a GR80 value, of illustrative compounds of this invention. […] Compounds of the invention were typically applied at rates of 300, 100, 30, and 10 g/ha. Where herbicidal activity was evident but 80% inhibition was not achieved at the highest rate tested, an asterisk (*) is shown in the following tables.
(§4) The pre-emergence tests were conducted by the following procedure. Topsoil was sieved to pass through a 1.27 cm screen. Fertilizer was added to the topsoil and the mixture was then sterilized by heating. The topsoil mixture was placed in a pot and compacted to a depth of 1.0 to 1.25 cm from the top of the pot. Seeds of each of several monocotyledonous and dicotyledonous annual plant species were placed on top of the soil. Additional soil was subsequently placed over the seeds to level-fill the pot. A known amount of each test compound dissolved or suspended in an appropriate organic solvent was diluted with a 50:50 mix of acetone and water and applied to the surface of the soil. After treatment the plants were placed in a greenhouse where they received 0.64 cm of overhead irrigation. All subsequent watering consisted of a light overhead mist and/or subirrigation as needed for germination and growth. Tables 5 and 6 below relate to warm season plant species which were placed after pre-emergence treatment in a greenhouse with a 30/21° C. day/night temperature regime. Tables 7 and 8 below relates to cool season plant species placed after pre-emergence treatment in a greenhouse or growth chamber with an 18/13° C. day/night temperature regime.
(§5) Approximately 14 days after planting and treating, the plants were observed and herbicidal efficacy recorded as percent inhibition by comparison with untreated plants.
(§6) The plant species usually regarded as weeds which were utilized in the tests are identified in the tables below according to the following legend, in which “d” indicates a dicotyledonous species and “m” a monocotyledonous species. All monocotyledonous species included in the tests herein are grasses.

[22] = system: AVEFA (wild oat); assay: Pre-emergence herbicidal activity, cool season; assay type: in vivo, Avena fatua; details: GR80 = lowest tested rate (300, 100, 30, 10 g/ha) with 80% or greater inhibition; approx. 14 days after treating; 18/13° C.
Experimental: as §3, §4, §5, §6

[23] = system: SORVU (shattercane); assay: Pre-emergence herbicidal activity, warm season; assay type: in vivo, Sorghum vulgare; details: GR80 = lowest tested rate (300, 100, 30, 10 g/ha) with 80% or greater inhibition; approx. 14 days after treating; 30/21° C.
How it was run: as §1

[24] = system: DIGSA (large crabgrass); assay: Pre-emergence herbicidal activity, warm season; assay type: in vivo, Digitaria sanguinalis; details: GR80 = lowest tested rate (300, 100, 30, 10 g/ha) with 80% or greater inhibition; approx. 14 days after treating; 30/21° C.
How it was run: as §2

[25] = system: CIRAR (canada thistle (seedling)); assay: Pre-emergence herbicidal activity, warm season; assay type: in vivo, Cirsium arvense; details: GR80 = lowest tested rate (300, 100, 30, 10 g/ha) with 80% or greater inhibition; approx. 14 days after treating; 30/21° C.
How it was run: as §1

[26] = system: AMARE (redroot pigweed); assay: Pre-emergence herbicidal activity, warm season; assay type: in vivo, Amaranthus retroflexus; details: GR80 = lowest tested rate (300, 100, 30, 10 g/ha) with 80% or greater inhibition; approx. 14 days after treating; 30/21° C.
How it was run: as §1

[27] = system: DATST (jimsonweed); assay: Pre-emergence herbicidal activity, warm season; assay type: in vivo, Datura stramonium; details: GR80 = lowest tested rate (300, 100, 30, 10 g/ha) with 80% or greater inhibition; approx. 14 days after treating; 30/21° C.
Experimental: as §3, §4, §5, §6

[28] = system: ABUTH (velvetleaf); assay: Pre-emergence herbicidal activity, warm season; assay type: in vivo, Abutilon theophrasti; details: GR80 = lowest tested rate (300, 100, 30, 10 g/ha) with 80% or greater inhibition; approx. 14 days after treating; 30/21° C.
How it was run: as §1

Compound | Pre-emergence activity (GR80) AGSST [1] [g/ha] | Pre-emergence activity GR80, SASKR [2] | Pre-emergence activity (GR80) SETFA [4] [g/ha] | Pre-emergence activity (GR80) SORHA [5] [g/ha] | Pre-emergence activity (GR80) SETVI [6] [g/ha] | Pre-emergence activity (GR80) BRAPP [7] [g/ha] | Pre-emergence activity GR80, SINAR [8] | Pre-emergence activity GR80, LAMPU [9] [g/ha] | Pre-emergence activity (GR80) ALOMY [10] [g/ha] | Pre-emergence activity GR80, POLCO [11] | Pre-emergence activity (GR80) SOLNI [12] [g/ha] | Pre-emergence activity (GR80) PANMI [13] [g/ha] | Pre-emergence activity (GR80) PANDI [14] [g/ha] | Pre-emergence activity GR80, STEME [15] [g/ha] | Pre-emergence activity GR80, VERPE [16] | Pre-emergence activity (GR80) POROL [17] [g/ha] | Pre-emergence activity GR80, GALAP [18] | Pre-emergence activity (GR80) CHEAL [20] [g/ha] | Pre-emergence activity (GR80) CONAR [21] [g/ha] | Pre-emergence activity (GR80) SORVU [23] [g/ha] | other results
CCSC(F)(F)S(=O)(=O)c1ncn(C(=O)N2CCCC2)n1 [Example 47] | 30 | 100 g/ha | 300 | 300 | 300 | 300 | 300 g/ha | 30 | 300 | [empty] | 300 | 100 | 300 | 30 | 10 g/ha | 300 | 300 g/ha | 300 | 300 |  | Pre-emergence activity (GR80) LOLMG [3]: 300 g/ha; Pre-emergence activity (GR80) ECHCG [19]: 300 g/ha
CCSC(F)(F)S(=O)(=O)c1ncn(C(=O)N(C)C)n1 [Example 49] | 100 | [empty] | 300 | 300 | 300 | 300 | 300 g/ha | 300 |  | [empty] |  | 300 | 300 | 300 | 300 g/ha | 300 | 300 g/ha | 300 | 300 | 300 | Pre-emergence activity (GR80) AVEFA [22]: 300 g/ha; Pre-emergence activity (GR80) ECHCG [19]: 300 g/ha
O=C(N1CCCC1)n1cnc(S(=O)(=O)C(F)(F)Cl)n1 [Example 83] | 100 | 300 g/ha | 300 | 300 | 300 | 100 | [empty] | 100 | 300 | 300 g/ha | 300 | 100 |  | 300 | [empty] | 100 | 100 g/ha | 100 | 300 | 300 | Pre-emergence activity (GR80) DIGSA [24]: 100 g/ha; Pre-emergence activity (GR80) CIRAR [25]: 100 g/ha; Pre-emergence activity (GR80) AMARE [26]: 300 g/ha
CCN(CC)C(=S)n1cnc(S(=O)(=O)C(F)(F)Cl)n1 [Example 94] | 300 | [empty] | 100 | 300 |  | 10 | [empty] | 300 | 10 | 10 g/ha | 100 | 100 |  | 300 | [empty] | 30 | [empty] | 30 | 100 | 100 | Pre-emergence activity (GR80) DIGSA [24]: 300 g/ha; Pre-emergence activity (GR80) DATST [27]: 300 g/ha; Pre-emergence activity (GR80) CIRAR [25]: 30 g/ha; Pre-emergence activity (GR80) AMARE [26]: 10 g/ha; Pre-emergence activity (GR80) ABUTH [28]: 100 g/ha

Source: US6461997B1, “Triazole sulfones having herbicidal activity” (Monsanto Technology LLC, priority 1999, dated 2002)
